What was measured:
[1] = Metabolic stability in rat liver microsomes after 5 to 180 mins by HPLC-UV analysis; format: ADME
[2] = Half life in rat liver microsomes at 100 uM after 5 to 180 mins by HPLC-UV analysis; format: ADME

SMILES	k el [1] [s⁻¹]	half-life at 100 µM [2] [min]
COc1cc2c(cc1OC)C(=O)C(CC1CCN(Cc3ccccc3)CC1)C2 (stereo unspecified) [DONEPEZIL]	0.000149	73.3
Oc1c(I)cc(Cl)c2cccnc12 [CLIOQUINOL]	0.000331	34.8
C[C@]12CC[C@H]3[C@@H](CCC4=CC(=O)CC[C@@]43C)[C@@H]1CC[C@@H]2O [TESTOSTERONE]	0.00525	2.1

Source: ChEMBL document CHEMBL3734674, “Design, Synthesis, and Evaluation of Orally Available Clioquinol-Moracin M Hybrids as Multitarget-Directed Ligands for Cognitive Improvement in a Rat Model of Neurodegeneration in Alzheimer's Disease” (J Med Chem, 2015)
